Test results reported in article PMC4157654, “Orthogonal functionalisation of α-helix mimetics” (Organic & Biomolecular Chemistry, 2014).

Legend:
hDM2 [1] = biological target: T1, hDM2 (Homo sapiens, UniProt Q00987); assay: Microscale thermophoresis direct binding to hDM2; details: trimer fixed at 50 nM, phosphate buffer pH 7.5
T1 construct: hDM2 17-126 was diluted into buffer; made in house
Experimental: (§1) The fluorescently tagged trimers 4 and 5 were designed for use in direct binding experiments. We observed that upon ‘click’ reaction, the fluorescence of the coumarin group in trimer 4 was quenched (Fig. S14 ^†). This trimer was therefore tested in the fluorescence anisotropy competition assays as described above (Fig. S7 and S8 ^†). […] Direct binding experiments were performed using both fluorescence anisotropy (Fig. 3b) and microscale thermophoresis[52] (Fig. S12 ^†). […] The same fluorescence anisotropy experiment was then carried out for Mcl-1 and Bcl-xL. […] The absence of selectivity between hDM2 and Mcl-1 in this instance may arise as a consequence of non-specific interactions imparted by the fluorescein group – we note that K d is lower for 5 than the IC50's observed for both 2 and 3 which would support this hypothesis.
Thermophoresis Direct Binding to h DM2
Figure S12 – Direct binding of Compound 5 to hDM2 measured using thermophoresis at a fixed […]
concentration of 5 of 50 nM. […] Performed in phosphate buffer pH 7.5, 200 mM NaCl, […]
The larger errors at lower protein concentration are possibly the result of non-specific binding of the fluorescent trimer to the thermophoresis capillaries.
Fluorescence and Absorbance Characterisation of Trimers 4 and 5 […]
(1 picture or pasted object on this page, not shown here)

Mcl-1 = biological target: T2, Mcl-1 (Homo sapiens, UniProt Q07820); assay: Fluorescence anisotropy direct binding assay, Mcl-1; details: trimer fixed at 50 nM, read-out: Kd obtained through direct titration, Mcl-1
T2 construct: The pet28a His-SUMO Mcl-1 (172-327) construct was over-expressed; His (N, cleaved yes); SUMO (N, cleaved yes); made in house; host or cells: E. coli Rosetta 2
Experimental: (§2) Fig. 3 Fluorescence anisotropy binding assays in phosphate buffer pH 7.5, 200 mM NaCl, 0.02 mg ml^–1 BSA. (a) p53/hDM2 competition assay hDM2 is fixed as 154 nM and FITC-p53 is at a concentration of 54.5 nM. (b) Direct binding assay of trimer 5 binding to hDM2 or Mcl-1. Compound 5 is fixed at 50 nM.
as §1
Figure S9 - Change of intensity during addition of hDM2 used to calculate λ.
Mcl-1172-327 was diluted into buffer across the 24 wells from 200 μM to 18 nM. […] Ligand bound was calculated from Eq. 3 using λ =
2.31. K d was calculated from Eq. 4. […]

Bcl-xL = biological target: T3, Bcl-xL (Homo sapiens, UniProt Q07817); assay: Fluorescence anisotropy direct binding assay, Bcl-xL; details: trimer fixed at 50 nM
T3 construct: made in house
Experimental: as §1
Figure S10 - Change of intensity during addition of Mcl-1 used to calculate λ.
Anisotropy Direct Binding to Bcl-x L
Figure S11 – Anisotropy direct binding of Compound 5 to Bcl-x L at a fixed concentration of 5 of 50
nM. Performed in phosphate buffer pH 7.5, 200 mM NaCl, 0.02 mg/ml BSA. […]

hDM2 [2] = biological target: T1, hDM2; assay: Fluorescence anisotropy direct binding assay, hDM2; details: trimer fixed at 50 nM, read-out: Kd obtained through direct titration, hDM2
Experimental: as §2
The fluorescently tagged trimers 4 and 5 were designed for use in direct binding experiments. We observed that upon ‘click’ reaction, the fluorescence of the coumarin group in trimer 4 was quenched (Fig. S14 ^†). This trimer was therefore tested in the fluorescence anisotropy competition assays as described above (Fig. S7 and S8 ^†). […] Direct binding experiments were performed using both fluorescence anisotropy (Fig. 3b) and microscale thermophoresis[52] (Fig. S12 ^†). […] The same fluorescence anisotropy experiment was then carried out for Mcl-1 and Bcl-xL. […]
Figure S8 – Fluorescence anisotropy competition assay testing the inhibition of the trimers against the Bcl-x L/BAK interaction; unfunctionalised trimer 1 and acid, ethylene glycol and coumarin-functionalised trimers 2, 3 and 4. […]
Direct Binding Assay Development hDM2 17-126 was diluted into buffer across the 24 wells from 400 μM to 36 nM. […] Ligand bound was calculated from Eq. 3 using λ =
2.06. K d was calculated from Eq. 4. […]

Mcl-1/NOXA-B interaction = biological target: T4, Mcl-1/NOXA-B interaction (Homo sapiens, UniProt Q07820); assay: Fluorescence anisotropy competition assay, Mcl-1/NOXA-B; format: binding; details: Mcl-1 150 nM, FITC-NOXA-B 50 nM, phosphate buffer pH 7.5
T4 construct: The pet28a His-SUMO Mcl-1 (172-327) construct was over-expressed; His (N, cleaved yes); SUMO (N, cleaved yes); made in house; host or cells: E. coli Rosetta 2
Experimental: Determination of the binding of FITC-NOXA-B to Mcl-1
The procedure followed was adapted from our previous paper on O-alkylated aromatic oligoamides.1 […]
Briefly: Mcl-1 was serially diluted (446 pM – 5 μM) into a solution of FITC-NOXA-B (25 nM) (40 […]
mM Sodium phosphate buffer pH 7.54, 200 mM NaCl, 0.02 mg/ml of bovine serum albumin) – the […]
total volume of each well was 100 μL, the plates were allowed to incubate at room temperature for 45 […]
minutes. Each experiment was run in triplicate and the fluorescence anisotropy measured using a […]
Perkin Elmer EnVisionTM 2103 MultiLabel plate reader, with excitation at 480 nm and emission at […]
535 nm ([…] bandwidth) and the intensity (Eq. 1) was calculated for each point. This was used to […]
calculate anisotropy (Eq. 2) and plotted to a sigmoidal fit in Origin 7 to determine the minimum and […]
maximum anisotropies (rmin and rmax). Using equation 3, the data for the anisotropy was converted to […]
fraction bound and multiplied by the FITC-NOXA-B concentration then fitted in origin 7 (Eq. 4) to […]
From a plot of intensity (Eq. 1) against […]
concentration of protein λ was calculated to be 1. […]
{(k + x + [FL] - {(k + x + [FL]2 - 4x[FL]} r = anisotropy, I = total intensity, P = perpendicular intensity, S = parallel intensity, Lb = fraction ligand bound, λ = Ibound/Iunbound = 1, [FL] = concentration of fluorescent ligand, k1 = Kd , y = Lb* FITC- […]
NOXA-B and x = [added titrant], G is an instrument factor set to 1.
Figure S4 - Fluorescence anisotropy titration assays for the addition of FITC-NOXA-B to a constant […]
concentration of Mcl-1. Performed in phosphate buffer pH 7.5, 200 mM NaCl, 0.02 mg/ml BSA.
In order to set up displacement assay conditions Mcl-1 and FITC-labelled NOXA-B concentrations […]
were fixed and the tracer peptide was displaced with unlabelled NOXA-B.
Figure S5 – Fluorescence anisotropy competition assay testing the inhibition of unlabelled NOXA-B […]
against the Mcl-1/NOXA-B interaction. Performed in phosphate buffer pH 7.5, 200 mM NaCl, 0.02 […]
mg/ml BSA. Mcl-1 is fixed as 150 nM and FITC-NOXA-B is at a concentration of 50 nM. […]
Figure S7 – Fluorescence anisotropy competition assay testing the inhibition of the trimers against the Mcl-1/NOXA-B interaction; unfunctionalised trimer 1 and acid, ethylene glycol and coumarin- […]
BSA. Mcl-1 is fixed as 150 nM and FITC-NOXA-B is at a concentration of 50 nM.

p53/hDM2 interaction = biological target: T5, p53/hDM2 interaction (Homo sapiens, UniProt Q00987); assay: Fluorescence anisotropy competition assay, p53/hDM2; format: binding; details: hDM2 154 nM, FITC-p53 54.5 nM, phosphate buffer pH 7.5, 200 mM NaCl, 0.02 mg/ml BSA
T5 construct: hDM2 17-126 was diluted into buffer; made in house
Experimental: The ability of the trimers to inhibit the p53/hDM2 interaction was then investigated using a fluorescence anisotropy competition assay (Fig. 3a). Briefly, a fluorescein-labelled p53 peptide is initially bound to hDM2 and displaced by increasing concentrations of inhibitor leading to a measurable decrease in anisotropy from which IC50 values can be determined, Table 1.
as §2
Figure S6 – Fluorescence anisotropy competition assay testing the inhibition of the trimers against the p53/hDM2 interaction; unfunctionalised trimer 1 and acid, ethylene glycol and coumarin-functionalised trimers 2, 3 and 4. Performed in phosphate buffer pH 7.5, 200 mM NaCl, 0.02 mg/ml BSA. h DM2 is fixed as 154 nM and FITC-p53 is at a concentration of 54.5 nM. […]

Bcl-xL/BAK interaction = biological target: T6, Bcl-xL/BAK interaction (Homo sapiens, UniProt Q07817); assay: Fluorescence anisotropy competition assay, Bcl-xL/BAK; format: binding; details: Bcl-xL 131 nM, BODIPY-BAK 43 nM, phosphate buffer pH 7.5
T6 construct: made in house
Experimental: Figure S8 – Fluorescence anisotropy competition assay testing the inhibition of the trimers against the Bcl-x L/BAK interaction; unfunctionalised trimer 1 and acid, ethylene glycol and coumarin-functionalised trimers 2, 3 and 4. Performed in phosphate buffer pH 7.5, 200 mM NaCl, 0.02 mg/ml
BSA. Bcl-x L is fixed as 131 nM and BODIPY-BAK is at a concentration of 43 nM.
The observed increase in anisotropy is likely to be the result of aggregation of the trimer to the BAK […]
tracer and Bcl-x L complex. […]
In all experiments the G factor, or ratio between the efficiency of the S(ame) and P(erpendicular) channels was set to 1. […]

| SMILES | Kd (hDM2 [1]) [µM] | Kd (Mcl-1) [µM] | Direct binding to Bcl-xL (Bcl-xL) | Kd (hDM2 [2]) [µM] | IC50 (Mcl-1/NOXA-B interaction) [µM] | IC50 (p53/hDM2 interaction) [µM] | IC50 Bcl-xL/BAK (Bcl-xL/BAK interaction) |
| --- | --- | --- | --- | --- | --- | --- | --- |
| CC(C)CN(C(=O)c1ccc(N(Cc2cccc3ccccc23)C(=O)c2ccc(NCc3ccccc3)cc2)cc1)c1ccc(C(=O)NCC(=O)O)cc1 [Trimer 1] |  |  |  |  | > 70 | 12.3 ± 0.4 | No inhibition |
| CC(C)CN(C(=O)c1ccc(N(Cc2cccc3ccccc23)C(=O)c2ccc(NCc3ccccc3)cc2)c(OCc2cn(CCOCCOCCOCCO)nn2)c1)c1ccc(C(=O)NCC(=O)O)cc1 [Trimer 3] |  |  |  |  | > 70 | 42 ± 6 | No inhibition |
| CC(C)CN(C(=O)c1ccc(N(Cc2cccc3ccccc23)C(=O)c2ccc(NCc3ccccc3)cc2)c(OCc2cn(CC(=O)O)nn2)c1)c1ccc(C(=O)NCC(=O)O)cc1 [Trimer 2] |  |  |  |  | > 70 | 40 ± 5 | No inhibition |

Other lines, results leading:

| Kd (hDM2 [1]) [µM] | Kd (Mcl-1) [µM] | Direct binding to Bcl-xL (Bcl-xL) | Kd (hDM2 [2]) [µM] | IC50 (Mcl-1/NOXA-B interaction) [µM] | IC50 (p53/hDM2 interaction) [µM] | IC50 Bcl-xL/BAK (Bcl-xL/BAK interaction) | SMILES |
| --- | --- | --- | --- | --- | --- | --- | --- |
| 11 ± 2 | 13 ± 4 | no binding was observed | 20 ± 6 |  |  |  | CC(C)CN(C(=O)c1ccc(N(Cc2cccc3ccccc23)C(=O)c2ccc(NCc3ccccc3)cc2)c(OCc2cn(CCCNC(=S)Nc3ccc(-c4c5ccc(=O)cc-5oc5cc(O)ccc45)c(C(=O)O)c3)nn2)c1)c1ccc(C(=O)NCC(=O)O)cc1 [Trimer 5] |
|  |  |  |  | > 70 | 20.3 ± 0.3 | No inhibition | CC(C)CN(C(=O)c1ccc(N(Cc2cccc3ccccc23)C(=O)c2ccc(NCc3ccccc3)cc2)c(OCc2cn(CCCNC(=O)c3cc4ccccc4oc3=O)nn2)c1)c1ccc(C(=O)NCC(=O)O)cc1 [Trimer 4] |
